These results are taken from US20060210497A1, “Novel resorcinol derivatives” (Unilever Home & Personal Care USA, Division Of Conopco, Inc., priority 2005, published 2006).

Experiment [1] deals with Mushroom tyrosinase. The experiment in a line: Mushroom tyrosinase assay. It is filed as biochemical. The conditions noted are these: for IC50: L-DOPA 0.5 mM, tyrosinase 0.1 mg/ml, phosphate pH 7.0, room temperature; for potency of tyrosinase inhibition, compared in words: cyclohexyl methyl resorcinol compared with ethyl resorcinol. The protocol:
Mushroom Tyrosinase Assay Mushroom tyrosinase inhibition is indicative of reduction in melanin synthesis, thereby showing skin lightening effect. Reagents: • Assay buffer: phosphate (100 mM, pH 7.0) • Mushroom tyrosinase stock solution (Sigma-Aldrich, Batch # 023K7024): 0.2 mg/ml in assay buffer • L-DOPA stock solution: 1.05 mM in assay buffer • Test compound stock solutions: 10 mM in DMSO Assay Conditions: • Mushroom tyrosinase: 0.1 mg/ml in assay buffer • L-DOPA: 0.5 mM in assay buffer • Test compounds: various concentrations, 2.5% final [DMSO] • Temperature: room temperature Procedure: […] The reaction is started by adding mushroom tyrosinase (100 uL of stock solution) into each well and the absorbance is monitored at 490 nm over a time period of 30 sec to 2 min. The initial reaction velocity in the presence or absence of test compounds is calculated ([…] nm/ min) and the % inhibition of test compounds is calculated using the following equation: [formula] where v0 is the initial reaction velocity in the absence of compound, v is the slope of the reaction in the absence of mushroom tyrosinase and vi is the slope of the reaction in the presence of test compound. The data (% inhibition vs. [test compound]) is fitted using data analysis software and the concentration of test compound at 50% inhibition (IC50) is determined from the fitted data. The IC50 value refers to the skin lightener concentration that results in 50% tyrosinase inhibition relative to the control (with a goal being obtaining maximum tyrosinase inhibition at minimum concentration).

The subject of experiment [2] is human sebocytes. The experiment in a line: Sebocyte assay (14C-acetate incorporation, sebocyte lipid synthesis). The experiment is classed as cell-based. As to the method:
Sebocyte Assay Procedure:
Secondary cultures of human sebocytes obtained from an adult […] were grown in 96-well tissue culture plates (Packard) until three days post-confluence. Sebocyte growth medium consisted of Clonetics Keratinocyte Basal Medium (KBM) supplemented with 14 ug/ml bovine pituitary extract, 0.4 ug/ml hydrocortisone, 5 ug/ml insulin, 10 ng/ml epidermal growth factor, 1.2×10^−10 M cholera toxin, 100 units/ml penicillin, and 100 ug/ml streptomycin. All cultures were incubated at 37° C. in the presence of 7.5% CO2. Medium was changed three times per week.
On the day of experimentation, the growth medium was removed and the sebocytes washed three times with sterile Dulbecco's Modified Eagle Medium (DMEM; phenol red free). Fresh DMEM was added to each sample (triplicates) with 2-microliters of test agent solubilized in ethanol. Controls consisted of addition of ethanol alone. Each plate was returned to the incubator for 20-hours followed by the addition of ^14C-acetate buffer (5 mM final concentration, 56 mCi/mmol specific activity). Sebocytes were returned to the incubator for 4-hours, after which, each culture was rinsed 3-times with phosphate buffered saline to remove unbound label. Radioactive label remaining in the sebocytes was determined using a Packard TopCount scintillation counter. Statistical significance (p value) was calculated using student's t-test. Phenol Red, a known sebum suppressive agent, was employed as a positive control.

What is called IC50 is the midpoint of a concentration-inhibition curve. A high value points to weaker potency.

In the case of `CCc1ccc(O)cc1O` [4-ethyl resorcinol (ER), 4-ethyl resorcinol, reference compound], in experiment [1], half-maximal inhibition (IC50) required 1.1 µM and the “potency of tyrosinase inhibition, compared in words” value is “comparable potency”.

As for `Oc1ccc(CC2CCCCC2)c(O)c1` [CHMR, 4-cyclohexylmethyl resorcinol], in experiment [1], inhibition was half-maximal at 0.95 µM (IC50) and the “potency of tyrosinase inhibition, compared in words” value is listed as “comparable potency”. The activity at 10 µM in experiment [2] (Homo sapiens, 10 uM test agent, 20 h incubation then 4 h 14C-acetate label, read-out: % of Control (ethanol)) stood at 98.9%. Besides, the activity at 100 µM in experiment [2] (Homo sapiens, 100 uM test agent, 20 h incubation then 4 h 14C-acetate label, read-out: % of Control (ethanol)) was determined as 69.3%. In addition, the “reduction in sebocyte lipid synthesis as compared to the vehicle control” value in experiment [2] (concentration on the order of about 100 micro-molar) is listed as “statistically significant reduction”.

For `O=S1(=O)OC(c2ccc(O)cc2)(c2ccc(O)cc2)c2ccccc21` [Phenol Red, reference compound], in experiment [2] (Homo sapiens, 28 uM test agent, 20 h incubation then 4 h 14C-acetate label, read-out: % of Control (ethanol)), the activity at 28 µM amounted to 84.4%. The activity at 280 µM in experiment [2] (Homo sapiens, 280 uM test agent, 20 h incubation then 4 h 14C-acetate label, read-out: % of Control (ethanol)) is 45.9%.
